Key:
LL-37 [1] = experiment: ELISA of LL-37 induction from OBA9 cells; assay type: cell-based, human; settings: for induction of LL-37 expression: in the absence of EGCG; for induction of LL-37 (ELISA): 20 ug/ml
Experimental: (§1) Using ELISA systems to detect LL-37 (Forsyth in-house) and hBD2 (Peprotech), 33 natural compounds (20 ug/ml) are examined for their ability to induce LL-37 and hBD2 from OBA9 cells. Although the sensitivity of the hBD2 ELISA is higher than that of LL-37 ELISA (10 pg/ml vs 1 ng/ml, respectively), the induction of LL-37 is more prominent than hBD2 (FIG. 2 A&B, LL-37; C&D, hBD2). […] Bactericidal effects of LL-37 and hBD2 are, in general, potent.
The Trihydroxybenzoate Derivatives of the Invention and rosemarinic acid, courmarin, catechin gallate, epicatechin gallate, epigallocatechin, and tannic acid are tested to induce LL-37 from OBA9 cells in the absence of EGCG.

LL-37 [2] = experiment: LL-37 expression by OBA9 cells with Sepharose-coupled benzoic acid isomers; assay type: cell-based, human; settings: isomer coupled to NHS-activated Sepharose gel with EDC
Description: In order to investigate the structure-function relationship underlying EGCG-mediated induction of LL-37 from human gingival epithelial cell line OBA9, different isomers of benzoic acids are examined for their effects on the LL-37 expression by OBA9 cells. Each isomer of benzoic acids is coupled to NHS-activated Sepharose gel (Pierce) using a cross-linker, 1-Ethyl-3-[3-dimethylaminopropyl]carbodiimide (EDC, Pierce). The isomers of benzoic acids include 1) 2,6-di-hydroxy benzoic acid, 2) 2,3,4-tri-hydroxy benzoic acids, 3) 3,4,5-tri-hydroxy benzoic acids, and 4) 2,4,6-tri-hydroxy benzoic acids.

LL-37 mRNA [3] = experiment: LL-37 mRNA expression in human gingival epithelial cell line OBA9; assay type: cell-based; settings: OBA9 cells, 4-hour exposure, 0.1, 1.0 and 10 ug/ml
Experimental: (§2) Both LL-37 and hBD2 mRNA expression in OBA9 cells are induced after a 4-hour exposure to green tea polyphenol extract, Teaflan 90S (EGCG 50%, ECG 13%), and purified EGCG (95% pure, SIGMA) at concentrations of 0.1, 1.0 and 10 ug/ml. EGCG increases the production of LL-37 and hBD2 at the mRNA level in the human gingival epithelial cell line OBA9 (FIG. 1) as well as the human lung carcinoma cell line A549.

hBD2 mRNA [4] = experiment: hBD2 mRNA expression in human gingival epithelial cell line OBA9; assay type: cell-based; settings: OBA9 cells, 4-hour exposure, 0.1, 1.0 and 10 ug/ml
Experimental: as §2

LL-37 mRNA [5] = experiment: LL-37 mRNA level in human lung carcinoma cell line A549; assay type: cell-based; settings: A549 cells
Experimental: as §2

hBD2 mRNA [6] = experiment: hBD2 mRNA level in human lung carcinoma cell line A549; assay type: cell-based; settings: A549 cells
Experimental: as §2

[7] = system: Actinobacillus actinomycetemcomitans Y4; experiment: Bactericidal effect of culture supernatant of treated OBA9 cells; assay type: cell-based; settings: supernatant of OBA9 treated at 20 ug/ml; compared with non-treated, catechin- and 2,4-dihydroxy benzoic acid-treated supernatant
Experimental: The culture supernatant isolate from OBA9 is treated with 1) EGCG, 2) catechin, 3) 2,4-dihydroxy benzoic acid, and 4) 3,4,5-tri-hydroxy benzoic acid (20 ug/ml, respectively) and examined for their bactericidal effects on Actinobacillus actinomycetemcomitans Y4 (Aa Y4).

LL-37 mRNA [8] = experiment: RT-PCR of LL-37 mRNA in cheek epithelial cells after mouthwash; assay type: in vivo, human; settings: mouthwash with 40 ug/ml, after 5 minutes
Description: (§3) Cheek epithelium is utilized for monitoring LL-37 mRNA and protein expression to determine if Trihydroxybenzoate Derivatives of the Invention can induce LL-37 in vivo. […] The isolated cheek cells are also subjected to Western blot analysis for protein expression of LL-37 by cheek epithelium using anti-LL-37 monoclonal antibody. The expression of both the proform (18 kD, also termed as hCAP18) and secreted form (4.5 kD) of LL-37 (12) in cheek epithelial cells is induced by Trihydroxybenzoate Derivatives of the Invention (e.g., EGCG (95% SIGMA), or by EGCG (90% Teavigo)).

LL-37 [9] = experiment: Western blot of LL-37 protein in cheek epithelial cells; assay type: in vivo, human; settings: Western blot with anti-LL-37 monoclonal antibody
Description: as §3

hBD2 = experiment: ELISA of hBD2 induction from OBA9 cells; assay type: cell-based, human; settings: 20 ug/ml
Experimental: as §1

Compound: O=C(/C=C/c1ccc(O)c(O)c1)O[C@H](Cc1ccc(O)c(O)c1)C(=O)O [Rosemarinic acid]
- induction of LL-37 expression (LL-37 [1]): little or no induction

Compound: O=C(O)c1c(O)cc(O)cc1O [2,4,6-tri-hydroxy benzoic acids]
- induction of LL-37 expression by OBA9 cells (LL-37 [2]): not

Compound: O=C(O[C@@H]1Cc2c(O)cc(O)cc2O[C@@H]1c1cc(O)c(O)c(O)c1)c1cc(O)c(O)c(O)c1 [EGCG]
- LL-37 mRNA expression (LL-37 mRNA [3]): induced
- hBD2 mRNA expression (hBD2 mRNA [4]): induced
- production of LL-37 at the mRNA level (LL-37 mRNA [5]): increases
- production of hBD2 at the mRNA level (hBD2 mRNA [6]): increases
- bactericidal effects of culture supernatant on Aa Y4 [7]: more bactericidal effects than control
- LL-37 mRNA expression by cheek epithelial cells (LL-37 mRNA [8]): up-regulated
- expression of proform (18 kD) and secreted form (4.5 kD) of LL-37 in cheek epithelial cells (LL-37 [9]): induced

Compound: CCCCCCCCCCCCCC(=O)O[C@@H]1[C@@H](C)[C@@]2(O)[C@@H](C=C(CO)C[C@]3(O)C(=O)C(C)=C[C@@H]23)[C@@H]2C(C)(C)[C@]12OC(C)=O [PMA]
- induction of LL-37 (ELISA) (LL-37 [1]): induced
- induction of hBD2 (ELISA) (hBD2): minimal induction activities

Compound: O=c1ccc2ccccc2o1 [courmarin]
- induction of LL-37 expression (LL-37 [1]): little or no induction

Compound: O=C(O)c1c(O)cccc1O [2,6-di-hydroxy benzoic acids, 2,6-di-hydroxy benzoic acid]
- induction of LL-37 expression by OBA9 cells (LL-37 [2]): not

Compound: O=C(O)c1cc(O)c(O)c(O)c1 [gallic acid, 3,4,5-trihydroxybenzoic acid]
- induction of LL-37 expression (LL-37 [1]): more potent than 3,4,-dihydroxy benzoate
- bactericidal effects of culture supernatant on Aa Y4 [7]: more bactericidal effects than control
- induction of LL-37 expression by OBA9 cells (LL-37 [2]): show the induction

Compound: Poly IC
- induction of LL-37 (ELISA) (LL-37 [1]): induced
- induction of hBD2 (ELISA) (hBD2): minimal induction activities

Compound: O=C(O)c1ccc(O)c(O)c1O [2,3,4-tri-hydroxy benzoic acids, 2,3,4-trihydroxybenzoic acid]
- induction of LL-37 expression by OBA9 cells (LL-37 [2]): show the induction

— patent US20100330070A1, “Methods Of Making An Antibody And Compositions Thereof” (priority 2009, published 2010)
